Measurements reported in publication PMC10384602 (Pharmaceuticals, 2023).

Columns and labels:
[1] = logD7.4 in octanol/buffer mixture; type: physicochemical; conditions: pH 7.4, room temperature
[2] = Radiochemical stability of the formulated product on standing at room temperature; type: physicochemical; conditions: after standing for 90 min at room temperature

- logD [1]: 3.59
- radiochemical purity after standing [2]: > 95%
Compound: O=C(Cc1ccccc1)Nc1nnc(CCSCCc2nnc(N[11C](=O)Cc3ccccc3)s2)s1 [[^11C]BPTES]
